US20160060234A1, “CYSTEINE DERIVATIVE” (AJINOMOTO CO., INC., priority 2010, published 2016)
Where a name gives a salt, the structure may show the parent alone.

Legend:
[1] = Time-course stability test at 70° C. of cis form-trans form mixture (Experimental Example 2); format: physicochemical; conditions: 5 days; for residual ratio (%) at pH 4: 25 mM phosphate buffer pH 4, 70° C.; for residual ratio (%) at pH 4 / residual ratio (%) at pH 5 / residual ratio (%) at pH 6 / residual ratio (%) at pH 7: HPLC area vs day 0; for preservation stability (in words, from Table 1): 25 mM phosphate buffer pH 4-7, 70° C.; for residual ratio (%) at pH 5: 25 mM phosphate buffer pH 5, 70° C.; for residual ratio (%) at pH 6: 25 mM phosphate buffer pH 6, 70° C.; for residual ratio (%) at pH 7: 25 mM phosphate buffer pH 7, 70° C.
Experimental: A time-course stability test was performed using about 1:1 mixture (20 mg/20 ml) of cis form-trans form of N-Ac-CP2Et obtained in Synthetic Example 7 in a 25 mM phosphate buffer at pH 4, 5, 6, and 7 and 70° C. in the same manner as in Examples Experimental Example 1. The test was performed for 5 days. As an index of a time-course stability test at 70° C., the area value of a target substance 5 days after start of the stability test relative to the area value of the target substance on day 0 after start of the stability test was calculated in % on an HPLC chart and used as a residual ratio.
Detector: ultraviolet absorption spectrophotometer (measurement wavelength; 210 nm) Column: Inertsil ODS-3 (High Pressure type, GL Sciences) (particle size 3 μm, inner diameter 4.6 mm, length 250 mm) eluent: A: 0.05M KH2PO4 (adjusted to pH2 with 85% H3PO4), B: MeOH gradient conditions: 0-5 minute: A=100, −25 minute: A:B=50:50, −35 minute: A:B=50:50, −40 minute: A=100, −45 minute: A=100 flow rate: 0.8 mL/minute column temperature: 30° C. sample concentration: 25-50 mg/dL injection volume: 20 μL retention time (minute): N-Ac-CP2Et (cis form): 31.9, N-Ac-CP2Et (trans form): 33.9

B16 melanoma = test: Eumelanin production suppression test; format: cell-based; conditions: Mus musculus, 72 h, 3 days culture, absorbance of medium at 450 nm, control = 100%, read-out: 50% melanin production suppressing concentration
Experimental: B16 melanoma was cultured in DMEM (Dulbecco's Modified Eagle Medium) (high glucose, containing 10% serum). Confluent cells were detached with trypsin, and plated on a 96 well plate. After cell adhesion to the plate the next day, the medium was changed to DMEM added with each evaluation sample (control (no sample addition), cysteine derivatives of each Synthetic Example) at a predetermined evaluation concentration (diluted from 10 mM according to sample), and the cells were cultured for 3 days. The 96 well plate was shaken for 5 minutes in a plateshaker, and the absorbance of the medium at 450 nm was measured by a microplatereader. The absorbance after 3 days from the addition of a predetermined concentration of each sample was shown in relative percentage to the measured value (absorbance) of the control (no sample addition) as 100%, and the concentration necessary for suppressing eumelanin production in each sample by 50% was calculated as 50% melanin production suppressing concentration relative to the amount of eumelanin in the control as 100%.
The microplatereader used in this eumelanin production suppression test was Benchmark microplatereader, manufactured by BIORAD.

[2] = Time-course stability test at 70° C. (Experimental Example 1); format: physicochemical; conditions: 25 mM phosphate buffer, pH 4, 5, 6 and 7, 70° C., 4 days, HPLC
Experimental: A time-course stability test was performed using N-Ac-CP2Et obtained in Synthetic Example 1 and N-Ac-CP obtained in Synthetic Example 13 in a 25 mM phosphate buffer at pH 4, 5, 6, and 7 and 70° C. The test was performed for 4 days. As comparison targets, CP obtained in Reference Example 1, and CP2Et obtained in Reference Example 2 were used. For the time-course stability test, HPLC; (pump) HITACHI L-7100, (Autosampler) HITACHI L-2200, and (detector) HITACHI L-4000 were used.
As an index of a time-course stability test at 70° C., the area value of a target substance after time course changes relative to the area value of the target substance on day 0 after start of the stability test was calculated in % on an HPLC chart and used as a residual ratio.
detector: ultraviolet absorption spectrophotometer (measurement wavelength; 210 nm) column: Inertsil ODS (GL Sciences) (particle size 3 μm, inner diameter 4.6 mm, length 250 mm) eluent: 4 mL/L aqueous phosphoric acid solution:methanol=3:1 (v/v) flow rate: 0.8 mL/minute column temperature: 50° C. sample concentration: 100 mg/dL injection volume: 20 μL retention time (minute): CP: 4.6, 4.8 (diastereomer mixture), N-Ac-CP: 8.0 […]

SMILES: CCOC(=O)C1(C)SCC(C(=O)O)N1C(C)=O (stereo not drawn) [N-Ac-CP2Et (cis form), N-acetyl-2-methylthiazolidine-2,4-dicarboxylic acid 2-ethyl ester]
- residual ratio (%) at pH 4 [1]: 69.9%
- preservation stability (in words, from Table 1) [1]: good preservation stability
- residual ratio (%) at pH 5 [1]: 93.5%
- residual ratio (%) at pH 6 [1]: 96.9%
- residual ratio (%) at pH 7 [1]: >99.9%

SMILES: CCOC(=O)C1(C)SCC(C(=O)O)N1C(C)=O (centres unmarked) [Synthetic Example 1, N-acetyl-2-methylthiazolidine-2,4-dicarboxylic acid 2-ethyl ester]
- IC50 (B16 melanoma): 4.54 mM
- preservation stability (residual ratio, FIGS. 1 to 4) [2]: preservation stability better than CP and CP2Et

SMILES: CCOC(=O)C1(C)SCC(C(=O)OC(C)C)N1C(C)=O (centres unmarked) [Synthetic Example 20, N-acetyl-2-methylthiazolidine-2,4-dicarboxylic acid 2-ethyl 4-isopropyl ester]
- IC50 (B16 melanoma): 1.42 mM

SMILES: CC(=O)N1C(C(=O)O)CSC1(C)C(=O)O (centres unmarked) [Synthetic Example 13, N-acetyl-2-methylthiazolidine-2,4-dicarboxylic acid]
- IC50 (B16 melanoma): 5.47 mM
- preservation stability (residual ratio, FIGS. 1 to 4) [2]: preservation stability better than CP and CP2Et

SMILES: CCOC(=O)C1(C)SCC(C(=O)O)N1C(C)=O (centres unmarked) (as salt: salt) [Synthetic Example 1, N-acetyl-2-methylthiazolidine-2,4-dicarboxylic acid 2-ethyl ester]
- melting point: 138 to 141 °C

SMILES: CCOC(=O)C1CSC(C)(C(=O)OCC)N1C(C)=O (centres unmarked) [Synthetic Example 19, N-acetyl-2-methylthiazolidine-2,4-dicarboxylic acid 2,4-diethyl ester]
- IC50 (B16 melanoma): 2.61 mM

SMILES: CCOC(=O)C1(C)SCC(C(=O)O)N1C(C)=O (stereo not drawn) [N-Ac-CP2Et (trans form), N-acetyl-2-methylthiazolidine-2,4-dicarboxylic acid 2-ethyl ester]
- residual ratio (%) at pH 4 [1]: 95.8%
- preservation stability (in words, from Table 1) [1]: good preservation stability
- residual ratio (%) at pH 5 [1]: 99.8%
- residual ratio (%) at pH 6 [1]: >99.9%
- residual ratio (%) at pH 7 [1]: >99.9%
